Experimental data published in patent US20150259429A1, “CLUSTER OF DIFFERENTIATION 36 (CD36) AS A THERAPEUTIC TARGET FOR HIV INFECTION” (INSTITUT CURIE, priority 2012, published 2015).
Where a SMILES comes first, the peptide text is derived from it. [ ]: non-standard residue; d: D form. dTrp(2-Me) = Cc1[nH]c2ccccc2c1C[C@@H](N)C(=O)O

Tests used:
[1] = test system: HIV-1-infected macrophages; assay: CD36 mAb blocking assay: p24 in supernatant and cell lysate of HIV-1-infected macrophages (ELISA); details: overnight exposure, comparison with CD36 ligands (FIG. 15E)
CD36 [2] = details: binding site competition; cited from earlier work
[3] = test system: HIV-1-infected primary macrophages; assay: p24 Gag release by HIV-1-infected macrophages after siRNA transfection (ELISA); details: Tsg101 knock down (positive control) compared with CD36 silencing
CD36 [4] = details: cited from earlier work
[5] = target: CD36 (human), on primary macrophages or HeLa-CD36 cells (human) (UniProt P16671); assay: cell-based or functional assay

## type-I Collagen: endogenous ligand of CD36, purchased from Sigma
[1]
  release of p24: none of the two ligands reduced

## Cc1[nH]c2ccccc2c1C[C@@H](NC(=O)[C@@H](N)Cc1cnc[nH]1)C(=O)N[C@@H](C)C(=O)N[C@@H](Cc1c[nH]c2ccccc12)C(=O)N[C@H](Cc1ccccc1)C(=O)N[C@@H](CCCCN)C(N)=O [Hexarelin, hexarelin] (H-H[dTrp(2-Me)]AW[dF]K-NH2)
CD36 [2]
  CD36-mediated uptake of oxLDLs: blocks

## CAGUUUAUCAUUCAAGUGUAA (listed as RNA, chemistry not given here) [Tsg101]
[3]
  extent of the inhibition of p24 release: similar

## Trombospondin-1: endogenous ligand of CD36
[1]
  release of p24: none of the two ligands reduced

## Cc1c(C)c2c(c(C)c1O)CC[C@@](C)(CCC[C@H](C)CCC[C@H](C)CCCC(C)C)O2 [α-tocopherol]
CD36 [4]
  uptake of oxLDLs into macrophages: reduce
CD36 [4]; macrophages
  expression of CD36: reduce

## CD36-specific mAb clone CLB-IVC7 (Immunotools) (antibody)
[5]
  p24 release in the culture supernatant of HIV-1-infected macrophages (ELISA), titration of the mAb: 32 ng/mL
